Key:
leukocyte migration = experiment: Anti-inflammatory tail section assay, leukocyte migration in zebrafish; format: in vivo
Method: (§1) All chemicals were firstly dissolved in dimethylsulfoxide, DMSO 99.5% (GC) Sigma-Aldrich), and then diluted in embryo medium E3 (5 mM NaCl, 0.17 mM KCl, 0.33 mM CaCl2, 0.33 mM Mg2SO4, 10-5% methylene blue).
(§2) During the course of the experiments, transgenic zebrafish of the fli-1: EGFP lines were used. Once the fertilized eggs were collected, they were reared in embryo medium E3 in an incubator at 28° C. The 20 hours post fertilization (hpf), 1-phenyl-2-thiourea (PTU) (Sigma-10×(0.03%)) was added to larvae's medium in 1:9 proportion to prevent the formation of melanophores in zebrafish embryos and larvae [Karlsson, J., von Hofsten, J. and Olsson, P. Mar. Biotechnol., 2001, 3, 522-527].
The experimental corroboration of anti-inflammatory activity was done by using a new in vivo test development using zebrafish biological material [Siverio-Mota, D., de Witte, P. et al, 2009, in preparation]. The principal aspects of this new biological assay are the following. First, ten larvae from 4 dpf were used per treated and control groups. In each case, the MTC was used as the assay concentration and indomethacin (Merck Sharp & Dohme) at 30 μM was used as control group. These larvae were placed in wells of a 24 wells tissue culture plate at assay's concentrations in ImL final volume. After one hour, the larvae were anesthetized by immersion in E3 containing tricaine (Westerfield, M., The Zebrafish Book: A Guide for the Laboratory Use of Zebrafish (Brachydanio rerio). 1995, Eugene, Oreg., University of Oregon Press), the complete section of the tail was performed with a sterile scalpel. Once tails were cut, zebrafish were placed again in a 24 wells tissue culture plate at assay's concentrations together with 10 μg/mL solution of lipopolysaccharide to stimulate the leukocyte migration. The temperature of incubation was kept from 20 to 22° C. […]
Anti-inflammatory activity was evaluated following the steps described above. Leukocyte migration to damaged zone (end tail) was observed and evaluated as the parameter determining the anti-inflammatory activity of the tested compounds. […]

[1] = test system: Maximal Electroshock (MES) induced seizures; experiment: Maximal Electroshock Seizure (MES) test; format: in vivo; conditions: mice ip 57, 188, or 570 µmg/kg; challenge 0.5 and 4 h after treatment
Method: Anticonvulsant activities were determined by the National Institutes of Health-National Institute of Neurological Disorders and Stroke-Antiepileptic Drug Development program for the detection and evaluation of compounds as anticonvulsants agents. Compounds were suspended in polyethylene glycol prior to injection into male Carworth Farms #1 mice. In Phase I studies, identification of anti-convulsant activity, test compounds were given intraperitonealy ([…]) of body mass, and protection against Maximal Electroshock (MES), Minimal Electroshock (MCS) and/or Metrazol (scMET) induced seizures was determined 30 min and 4 h later. All statistics were obtained by Probit analysis.
Maximal electroshock seizure (MES) were elicited with a 60 cycles alternating current of 50 mA, five to seven times that necessary to elicit minimal electroshock seizures, delivered for 0.2 s via corneal electrodes. A drop of 0.9% saline solution was instilled into both eyes prior to application of electrodes in order to prevent death. Abolition of the hind limb tonic extension component of seizure is defined as anticonvulsant activity.

Minimal Clonic Seizure = experiment: Minimal Electroshock / Psychomotor (Minimal Clonic) Seizure test (MCS); format: in vivo, mice; conditions: for anticonvulsant activity against MCS, complex versus individual constituents: mouse, in vivo
Method: Anticonvulsant activities were determined by the National Institutes of Health-National Institute of Neurological Disorders and Stroke-Antiepileptic Drug Development program for the detection and evaluation of compounds as anticonvulsants agents. Compounds were suspended in polyethylene glycol prior to injection into male Carworth Farms #1 mice. In Phase I studies, identification of anti-convulsant activity, test compounds were given intraperitonealy (ip) at 57, 188 and 570 milligrams-per-kilogram (mg/kg) of body mass, and protection against Maximal Electroshock (MES), Minimal Electroshock (MCS) and/or Metrazol (scMET) induced seizures was determined 30 min and 4 h later. All statistics were obtained by Probit analysis.
This test was designed to detect compounds that are missed with the MES tests which employ a larger current of 50 mA. The delivery of a less intense electric stimulation which produces less intense stimulation of the CNS (Central Nervous System) and brain inflammation than the MES test, via corneal electrodes of 6 Hz, 32 mA or slightly higher current, for 3 s, is used to produce psychomotor seizures, following instillation of a drop of 0.9% saline solution prior to this application of electric current. Abolition of the visual stereotypic behavior characterized as minimal automatist behaviors, similar to the aura that human patients experience during psychomotor seizure, is defined as antipsychomotor seizure activity.

[2] = test system: Metrazol (scMET) induced seizures; experiment: Subcutaneous Metrazol seizure threshold test (scMET), mice; format: in vivo
Method: Anticonvulsant activities were determined by the National Institutes of Health-National Institute of Neurological Disorders and Stroke-Antiepileptic Drug Development program for the detection and evaluation of compounds as anticonvulsants agents. Compounds were suspended in polyethylene glycol prior to injection into male Carworth Farms #1 mice. […] All statistics were obtained by Probit analysis.
A dose of Pentylenetetrazol, a potent CNS stimulant, which produces seizures in greater than 97% of treated mice, at 85 mg/kg of body mass, was administered s.c. as a 0.5% saline solution at the posterior neck midline. […] Failure to observe even a threshold seizure, a single episode of clonic spasms of at least five second duration, is defined as anticonvulsant activity.

MET-induced seizures = experiment: Metrazol seizure test, oral treatment of rats; format: in vivo; conditions: rats oral 94 μmol/kg
[3] = Rotating rod test (Rotorod Toxicity), mice; format: in vivo; conditions: for Rotorod Toxicity: challenge 0.5 and 4 h
Text: (§3) This qualitative test was used to evaluate ‘neurotoxicity’, central nervous system stimulation or depression. Depression of CNS activity is a common feature of all antiepileptic drugs. Mice or rats are placed on a 1 inch diameter knurled plastic rod rotating at 6 revolutions per min. Normal mice and rats can remain on a rod rotating at this speed indefinitely. […] It may be attributed to CNS depression due to sedative and/or hypnotic activities, or a state of eminent death, due to medullary paralysis at high doses, a common unwanted side effect caused by high doses of all anticonvulsant drugs.

[4] = Rotating rod test (Rotorod Toxicity), rats; format: in vivo; conditions: rats oral 94 μmol/kg; challenge 0.25, 0.5, 1, 2, and 4 h
Text: as §3

zebrafish larvae = experiment: Toxicological evaluation (Maximum Tolerated Concentration) in zebrafish larvae; format: in vivo; conditions: 100 µM; 24 h exposure of larvae
Method: as §1, §2
The Maximum Tolerated Concentration (MTC) was defined as the maximum concentration at which no death or signs of toxicity (in the circulatory system) were observed.
The MTC in the fish water was initially determined by incubating zebrafish larvae resulting from 4 days post fertilization (dpf) with compounds assayed in E3. During 24 hours, 5 larvae of zebrafish per well were placed in a tissue culture in 24 well plates using tested compounds at 10 μM, 30 μM and 100 μM concentration in the medium. Following the 24 h period of incubation, the characteristics of the zebrafish larvae were examined. The MTC were determined in treated groups at 5 dpf after 24 h exposure to the tested drugs.

Compound: CCCC(CCC)C(=O)[O-].CCCC(CCC)C(=O)[O-].CCCC(CCC)C(=O)[O-].CCCC(CCC)C(=O)[O-].[Cu+2].[Cu+2] [Compound 3, Tetrakis-μ-2-propylpentanoato dicopper(II)]
- percentage of relative leukocyte's migration (leukocyte migration; zebrafish larvae, tail section + lipopolysaccharide, tested at MTC, 7 h): 60%

Compound: CCCC(CCC)C(=O)[O-].CCCC(CCC)C(=O)[O-].[Cu+2].c1cnc2c(c1)ccc1cccnc12 [Compound 4, bis-(2-propylpentanoato)(1,10-phenanthroline)copper(II)]
- anticonvulsant activity, MES challenge [1]: inactive
- TPE (Time to Peak Effect) (Minimal Clonic Seizure; 18 μmol/kg): 2 h
- activity against Minimal Clonic seizure (Minimal Clonic Seizure; 18 mol/kg, challenge times 1, 2, and 4 h): activity was found
- ED50, Minimal Clonic seizure (Minimal Clonic Seizure; mice): 8 µmol/kg
- toxicity observed in MCS test (Minimal Clonic Seizure; mice 188 μmol/kg, 0.25, 0.5, 1, and 2 h): inability to grasp the rotating rod
- deaths in MCS test (Minimal Clonic Seizure; mice 188 μmol/kg, 2 h challenge time): three deaths
- deaths in MCS test (Minimal Clonic Seizure; mice 188 μmol/kg, before the 4 h challenge): all mice died
- activity against Minimal Clonic seizure (Minimal Clonic Seizure; mice 188 μmol/kg, challenge 0.25, 0.5, 1, and 2 h): active
- toxicity in MCS test (Minimal Clonic Seizure; mice 2.25, 4.5, 9, 18, and 36 μmol/kg, 2 h): absence of toxicity
- protection against the Minimal Clonic seizure (Minimal Clonic Seizure; mice 2.25, 4.5, 9, 18, and 36 μmol/kg, challenge at 2 h): dose-related increase in protection
- deaths in MCS test (Minimal Clonic Seizure; mice ip 94 μmol/kg, after the 2 h challenge): two deaths
- protection against Minimal Clonic Seizure (Minimal Clonic Seizure; mice ip 94 μmol/kg, challenge 0.25, 0.5, 1, and 2 h): protected
- toxicity observed in MCS test (Minimal Clonic Seizure; mice ip 94 μmol/kg, most mice): Minimal motor impairment
- deaths in MCS test (Minimal Clonic Seizure; mice ip 94 μmol/kg, prior to challenge at 4 h): All treated mice died
- anticonvulsant activity against MCS, complex versus individual constituents (Minimal Clonic Seizure): μmolar level
- deaths in scMET test ([2]; 188 μmol/kg at 4 h challenge and 570 μmol/kg at 0.5 challenge time): deaths occurring without seizure
- anticonvulsant activity, scMET seizure model ([2]; mice 5.7, 19, 57, 188, and 570 μmol/kg, challenge 0.5 and 4 h): inactive
- adverse effects in MET test (MET-induced seizures): continuous seizure activity, death following continuous seizure activity, or tonic seizure extension
- protection against MET-induced seizures (MET-induced seizures; challenge 0.25, 0.5, 1, 2, and 4 h): not protective
- deaths in Rotorod test ([3]; mice 188 μmol/kg, 4 h challenge time): three deaths
- Rotorod Toxicity ([3]; mice 188 μmol/kg, impaired ability to grasp the rotating rod): observed
- Rotorod Toxicity ([3]; mice 570 μmol/kg): impaired ability to grasp the rotating rod, sedation, and deaths without seizure
- Rotorod Toxicity ([3]; mice ip 5.7, 19, and 57 μmol/kg): not observed
- Rotorod Toxicity [4]: failed to evidence Rotorod Toxicity

Compound: CCCC(CCC)C(=O)[O-].CCCC(CCC)C(=O)[O-].[Mg+2] [Compound 7]
- toxicity in zebrafish (zebrafish larvae): did not show any toxicity
- anti-inflammatory result, ranking in words (leukocyte migration; zebrafish): best result

Compound: [Cl][Cu][Cl] [copper chloride, reference compound]
- anticonvulsant activity against MCS, complex versus individual constituents (Minimal Clonic Seizure): no anticonvulsant of activity

Compound: COc1ccc2c(c1)c(CC(=O)O)c(C)n2C(=O)c1ccc(Cl)cc1 [indomethacin, reference compound]
- percentage of relative leukocyte's migration (leukocyte migration; positive control, indomethacin at 30 μM): 20%

Compound: c1cnc2c(c1)ccc1cccnc12 [phenanthroline, 1,10-phenanthroline, reference compound]
- anticonvulsant activity against MCS, complex versus individual constituents (Minimal Clonic Seizure): no anticonvulsant of activity

Compound: CCCC(CCC)C(=O)O [sodium valproate, reference compound]
- ED50 (Minimal Clonic Seizure; Mus musculus, same paradigm, sodium valproate): 2800 µmol/kg

Compound: CCCC(CCC)C(=O)O [valproic acid, 2-propylpentanoic acid]
- anticonvulsant activity against MCS, complex versus individual constituents (Minimal Clonic Seizure): much less potency

Compound: copper acetate [reference compound]
- anticonvulsant activity against MCS, complex versus individual constituents (Minimal Clonic Seizure): no anticonvulsant of activity
